This test addresses T1, CRMP2 (collapsin response mediator protein 2) (Rattus norvegicus, UniProt P47942).
T1 construct: gene Dpysl2; purified recombinant wild-type CRMP2 (GST construct), NT647-labeled
Put plainly: microscale thermophoresis (MST), Hill fit. The format is binding. A general note: In MST a laser heats a spot of the sample, and binding alters the fluorescence response.

Among the data in PMC4109617, “The functionalized amino acid (S)-Lacosamide subverts CRMP2-mediated tubulin polymerization to prevent constitutive and activity-dependent increase in neurite outgrowth” (Frontiers in Cellular Neuroscience, 2014) are Kd values, retold here.

As usually defined, the Kd is the constant that tells how readily two partners part at equilibrium. With `COC[C@H](NC(C)=O)C(=O)NCc1ccccc1` [(S)-LCM, (S)-lacosamide], the Kd turned out to be 1500 ± 10 nM.
